The target in experiment [1] is T1, acyl-CoA: cholesterol acyltransferase (ACAT) (Rattus norvegicus, UniProt Q7TQM4).
T1 construct: Microsomes were obtained by differential centrifugation; from tissue; host or cells: liver microsomes of male Sprague Dawley rats
T1 sequence (Q7TQM4 1-524): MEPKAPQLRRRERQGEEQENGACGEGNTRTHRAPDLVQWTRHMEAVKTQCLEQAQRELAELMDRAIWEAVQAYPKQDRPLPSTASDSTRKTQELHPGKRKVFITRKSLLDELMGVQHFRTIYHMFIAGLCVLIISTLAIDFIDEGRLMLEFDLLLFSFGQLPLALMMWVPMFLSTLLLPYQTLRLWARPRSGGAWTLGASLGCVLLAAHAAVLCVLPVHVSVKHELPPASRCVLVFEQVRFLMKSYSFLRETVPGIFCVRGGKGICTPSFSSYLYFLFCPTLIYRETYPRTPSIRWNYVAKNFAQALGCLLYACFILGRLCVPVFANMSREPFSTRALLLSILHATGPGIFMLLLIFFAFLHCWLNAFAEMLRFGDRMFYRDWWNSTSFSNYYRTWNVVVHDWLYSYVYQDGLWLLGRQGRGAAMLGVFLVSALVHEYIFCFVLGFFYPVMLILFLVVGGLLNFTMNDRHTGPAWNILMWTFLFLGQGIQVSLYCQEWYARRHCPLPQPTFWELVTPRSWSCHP
The experiment is described as follows: Inhibition of Acyl-CoA: Cholesterol Acyltransferase (ACAT) in hepatic microsomes (in vitro hepatic ACAT activity). The conditions noted are these: 14C-oleoyl-CoA, 15 min preincubation at 37° C., pH 7.4, read-out: Inhibition of Cholesterol Esterification (IC50). Type of experiment: biochemical, rat (male Sprague Dawley). How it is done:
The ability of the compounds to inhibit ACAT, the enzyme responsible for the intracellular synthesis of cholesteryl esters, was tested as follows. Male Sprague Dawley rats weighing 150-300 g, were fed rat chow ad libitum. The animals were fasted for twenty-four hours prior to being sacrificed by decapitation. The livers were perfused in situ with 50 ml of cold 0.25M sucrose, excised, and homogenized in three volumes of 0.1M phosphate buffer, pH 7.4, that contained 0.5 mM EDTA (ethylenediaminetetraacetic acid), 1.0 mM glutathione, 0.25M sucrose and […]. Microsomes were obtained by differential centrifugation; the supernatant from an initial spin at 15,000×g for 15 minutes was centrifuged at 105,000×g for 1 hour to pellet the microsomes. The microsomes were suspended in homogenization buffer, reisolated by centrifugation, and stored at -70° C. Microsomes were used within one month of preparation.
The control assay in a final volume of 200 μl consisted of 200 μg of microsomal protein, 75μ<^14 C-oleoyl-CoA (10,000 dpm/nmol) in 0.1M phosphate, pH 7.4, that contained 1 mM glutathione. Compounds were added in 5 μl of DMSO (dimethyl sulfoxide) and additional controls were run with DMSO only. All components, except the oleoyl-CoA, were preincubated for 15 min. at 37° C. prior to the initiation of the reaction by the addition of oleoyl-CoA. The assay was terminated after 10 min. by the addition of 4 ml of chloroform:methanol (2:1, v/v). 20,000 dpm of 3H-choledsteryl oleate and 10 μg of unlabeled cholesteryl oleate and oleic acid were added as an internal standard and carriers, respectively. After allowing 10 min. for lipid extraction, 0.8 ml of deionized water was added to separte the solution into two phases. The lower chloroform phase was collected, dried under nitrogen and resuspended in 2 ml of hexane:diethyl ether (97:3 v/v). The lipids were then loaded onto BAKERSBOND spe* silica gel columns. Extracts were collected in scintillation vials and counted for radioactivity. The specific activity of ACAT in the control incubation averaged 260 pmol/min/mg microsomal protein.

The next experiment addresses T2, ACAT (Mus musculus, UniProt Q61263).
T2 construct: endogenous in cells; host or cells: J774.A1 (murine macrophage-like)
T2 sequence (Q61263 1-540): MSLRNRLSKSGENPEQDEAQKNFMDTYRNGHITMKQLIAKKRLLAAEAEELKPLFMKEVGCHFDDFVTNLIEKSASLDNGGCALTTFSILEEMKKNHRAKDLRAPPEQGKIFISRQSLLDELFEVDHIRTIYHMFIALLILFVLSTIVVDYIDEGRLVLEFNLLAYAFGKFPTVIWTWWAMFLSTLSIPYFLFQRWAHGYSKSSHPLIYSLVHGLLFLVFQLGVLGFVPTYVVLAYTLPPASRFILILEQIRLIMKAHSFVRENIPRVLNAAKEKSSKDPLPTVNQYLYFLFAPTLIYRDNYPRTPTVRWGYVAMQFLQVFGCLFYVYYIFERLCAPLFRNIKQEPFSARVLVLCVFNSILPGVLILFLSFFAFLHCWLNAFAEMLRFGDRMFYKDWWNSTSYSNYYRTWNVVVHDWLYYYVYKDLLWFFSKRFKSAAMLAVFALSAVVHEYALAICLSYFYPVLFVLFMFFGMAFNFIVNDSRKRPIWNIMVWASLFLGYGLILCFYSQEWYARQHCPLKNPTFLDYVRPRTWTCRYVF
The experiment is described as follows: Inhibition of cholesterol esterification in the murine macrophage-like cell line J774.A1. Type of experiment: cell-based. The conditions noted are these: J774.A1 cells, ac-LDL loaded, 14C-oleic acid pulse. The protocol:
The esterification of cholesterol was determined in the murine macrophage-like cell line J774.A1. Cells were seeded in 35 mm wells at a density of 300,000 cells per well in 2 mls of Dulbecco's Eagle Medium (DMEM) supplemented with 10% fetal bovine serum (FBS). Cells were incubated at 37° C. in an atmosphere of 5% CO2 and 93% humidity. After […] the media was changed to 0.68 mls 10% FBS-DMEM containing 34 μg of acetylated human low density lipoprotein (ac-LDL) to increase the intracellular concentration of cholesterol and promote esterification. At 41 hours, various inhibitors were added to the cells in DMSO (10 μl/ml maximum). At 43 hours, the cells were pulsed with 0.1 mM ^14 C-oleic acid (10,000 dpm/nmol) complexed with BSA (bovine serum albumin) to follow cholesterol ester formation. The experiment was terminated at 45 hours by washing the monolayers 3 times with 3 ml of Tris-buffered saline at 4° C. The lipids were extracted by incubating the monolayers with 1.5 ml of hexane: isopropanol (3:2, v/v) for 30 min. under gentle agitation. During this period, 10,000 dpm ^3 H-cholesterol oleate and 10 μg of unlabeled cholesteryl oleate, oleic acid, triolein and cholesterol were added as an […] standard and carriers. The organic solvent was removed and the cells were washed with an additional 1.0 ml of hexane: isopropanol which was combined with the original extract. The cells were allowed to dry overnight, digested with 2.0 ml of 0.2N sodium hydroxide for 1 hour and an aliquot of the solubilized protein used for protein determination using the Lowry method. […] Extracts were collected in scintillation vials to determine the amount of radioactivity. The conversion of oleic acid to cholesteryl ester in the control averaged 0.54 mmol/hour/mg protein and was increased upon the addition of ac-LDL to about 10.689±0.69 mmol/hour/mg protein.

Broadly, the IC50 is the concentration at which inhibition is half-maximal.

Consider `CCCCCCCN(CCOC(=O)CSc1nc(-c2ccc(OC)cc2)c(-c2ccc(OC)cc2)[nH]1)C(=O)Nc1ccc(F)cc1F` [Example 422, N-[2-[2-(4,5-bis(4-methoxyphenyl)-1H-imidazol-2-ylthio)-acetoxy]-ethyl]-N'-(2,4-diflurophenyl)-N -heptyl-urea], for which the values for the IC50 (in experiment [1]; on ACAT) were 2600 nM and 2390 nM, respectively.

Take `CCCN(CCOC(=O)CSc1nc(-c2ccccc2)c(-c2ccccc2)[nH]1)C(=O)Nc1ccc(F)cc1F` [Example 421]: the half-inhibitory concentration (IC50) is 4100 nM in experiment [1] and 3680 nM against ACAT.

On to `CCCCN(C)CCN(CCOCCSc1nc(-c2ccc(OC)cc2)c(-c2ccc(OC)cc2)[nH]1)C(=O)Nc1ccc(F)cc1F` [Example 32, N-[2-(2-(4,5-bis(4-methoxyphenyl)-1H-imidazol-2-ylthio)ethoxy)ethyl]-N-[2-(N-butyl-N-methylamino)ethyl]-N'-(2,4-difluorophenyl) urea], for which the figures for the IC50 (in experiment [1]; on ACAT) were 1500 nM and 630 nM, respectively.

The values are drawn from US5358946A, “Heterocycle-substituted amides, carbamates and ureas as agents for the treatment of atherosclerosis” (The Du Pont Merck Pharmaceutical Company, priority 1992, dated 1994).
